Residues, ends and D or L forms follow the SMILES beside them. *: point of attachment. Boc = CC(C)(C)OC(=O)*
Row | Compound | melting point [°C]
1 | O=C(CNC(=O)c1ccc(S(=O)(=O)F)cc1)Nc1cccc(-c2cccc3c2/C(=C/c2ccc[nH]2)C(=O)N3)c1 | 248 to 250
2 | CNC(=O)n1sc(Cc2ccccc2)nc1=O | 146
3 | O=C(O)C(=O)c1ccc(OCCCc2ccccc2)cc1 | 58 to 59
4 | CCCCOc1cc(C=C[N+](=O)[O-])c([N+](=O)[O-])cc1OCc1ccccc1 | 152
5 | COc1ccc(C(=O)CC(C)C)c(Cl)c1Cl | 49 to 54
6 | COCCN1c2ccc([N+](=O)[O-])cc2CS1(=O)=O | 130 to 132
7 | CCCCCCc1ccc2c(c1)[nH]c1cc(COC(c3ccccc3)(c3ccccc3)c3ccccc3)ccc12 | 155 to 156
8 | Fc1ccc(-c2ccc3[nH]c4c(ccc5cc[nH]c54)c3c2)cc1 | > 250
9 | CCOC(=O)c1cnc(CC)nc1NCc1ccc(-c2ccccc2-c2nnnn2C(c2ccccc2)(c2ccccc2)c2ccccc2)cc1 | 134 to 136
10 | C#CCNc1cc(C(=O)O)cc(S(N)(=O)=O)c1Oc1ccccc1 | 222 to 223
11 | O=C(NCC12CC3CC(CC(C3)C1)C2)c1cc(-c2ccc(Cl)cc2C(=O)O)ccc1Cl | 207 to 210
12 | CC(O)Cn1c(CO)nc(C(C)C)c1Sc1cc(Cl)cc(Cl)c1 (centres undefined) | 159 to 161
13 | CC(=O)Nc1ccc(Nc2c(CC3CC4C=CC3C4)cc(C(=O)O)cc2S(=O)(=O)NC(C)=O)cc1 (centres undefined) | 270
14 | CC(Cl)(Cl)C1(O)NC(=O)C(=O)N1 | 220
15 | CCOC(=O)C1(N)N=C(c2ccccc2Cl)c2cc(CC)sc2-n2c(C)nnc21 (centres undefined) | 180 to 181
16 | CC(c1cc2cc(F)ccc2s1)N(O)C(N)=O (centres undefined) | 149 to 153
17 | Cc1cc2[nH]c(C)nc(N3CCOCC3)c-2n1 | 242 to 243
18 | Cc1cc(=O)oc2nn(Cc3ccc(Cl)cc3)c(C)c12 | 149 to 152
19 | COc1ccc(CCn2ccn(C3CCc4ccccc4C3)c2=S)cc1OC (centres undefined) | 97 to 101
20 | CC(=O)Nc1ccn(C2OC(COC(C)=O)C(OC(C)=O)C2O[N+](=O)[O-])c(=O)n1 (centres undefined) | 160 to 161
21 | O=C(Nc1cc(C(F)(F)F)on1)c1ccccc1 | 152 to 154
22 | CCCCNC(=O)c1cc(-c2csc(-c3ccc([N+](=O)[O-])cc3)n2)n(CC2CCCCC2)c1C | 184 to 187
23 | CCOCCOc1ccc(COc2cnn(C(C)(C)C)c(=O)c2Cl)cc1 | 82 to 83
24 | Cc1cc(Br)cnc1CCCCNc1ncc(Cc2ccccc2)c(=O)[nH]1 | 138 to 139
25 | CCc1cc(C)nc2c(C)ccc([N+](=O)[O-])c12 | 89 to 90

Row | Compound | melting point [°C]
26 | CC12CCCc3cc(Nc4ccc(C(=O)O)cc4)cc(c31)CCC2 | 232 to 234
27 | COc1ccc2c(c1)c(-c1cc3cccnc3[nH]1)cn2C | 226 to 227
28 | CCC1CN(c2c(F)cc3c(=O)c(C(=O)O)cn(C4CC4F)c3c2OC)CC1(C)N (centres undefined) | 113 to 115
29 | CNC(=O)CCN1CCC(C(O)(c2ccc(F)cc2)c2ccc(F)cc2)CC1 | 127 to 129
30 | Cc1ccc(Cn2c3c(c4cc(-c5cccc(C)c5)ccc42)C(=O)C(=O)OC3)cc1 | 216 to 217
31 | CN(C)c1ccc(/C=C/c2c(F)cc(F)cc2F)cc1 | 127 to 128
32 | CCn1nc(OCC(=O)c2ccc(F)cc2)c(-c2ccc(F)cc2)c1-c1ccc(OC)cc1 | 170 to 171
33 | CCOC(=O)COc1c(C(=O)OC)cc(Cl)cc1[N+](=O)[O-] | 68 to 70
34 | COc1cc(CBr)c(OC)cc1/C=C/c1cc(OC)c(CBr)cc1OC | 165 to 167
35 | CCOC(=O)CCC(=O)OCC(F)(F)Cn1nc(C)c(-c2ccc3c(c2)NC(=O)CO3)c1-c1ccc(F)cc1 | 100
36 | CCCCCCCCCCCCCCCCCCc1nc2ncccc2o1 | 84 to 85
37 | CCn1c(=N)c(-c2c(Cl)cccc2Cl)cc2cnc(SC)nc21 | 217 to 219
38 | CCc1c(-c2ccc(N3CCN(C)CC3)nn2)ssc1=S | 182
39 | CC(=O)N1c2ccc(-c3ccc(CN(C)C)cc3)cc2C(Nc2ccccc2)CC1C (centres undefined) | 90
40 | Cn1cc(C(=O)NCc2ccc(Cl)cc2)c(=O)c2cc(CN3CCOCC3)cc(C#CCCCO)c21 | 179 to 182
41 | CCCCCc1ccc(-c2ccc(N)cc2)nc1 | 60.3 to 61.3
42 | Cc1cc(O)ccc1-c1c(C=O)sc(-c2ccc(O)c(F)c2)c1C | 227 to 230
43 | CCOC(=O)c1ocnc1C | 31 to 33
44 | O=C(c1cccc(C(=O)c2ccc(F)c([N+](=O)[O-])c2)c1)c1ccc(F)c([N+](=O)[O-])c1 | 148 to 149
45 | CC(=O)Nc1ccc(/C=C/C(=O)N2CC(CCl)c3c2cc(N)c2ccccc32)cc1 (centres undefined) | > 250
46 | Cc1ccccc1C(=O)Nc1ccc(C(=O)O)cc1 | 270 to 275
47 | CCOC(=O)c1cncc(C(=O)OCC)c1 | 42 to 44
48 | CC(C)COP(C)(=O)CC(O)CN1C(=O)c2ccccc2C1=O (centres undefined) | 110 to 113
49 | COc1cc2c(cc1Cl)CCN(C)CC2c1ccc(Br)cc1 (centres undefined) | 116 to 118
50 | N#CCN1CCCC(OC(c2ccccc2)c2ccccc2)C1 (centres undefined) | 97 to 99

Row | Compound | melting point [°C]
51 | COc1cc(OC)cc(-c2ncn(C)c2-c2ccc3c(c2)NCCO3)c1 | 175 to 178
52 | CS(=O)(=O)c1ccc(-n2nc(CCCN3C(=O)c4ccccc4C3=O)cc2-c2ccccc2)cc1 | 62.4 to 72.2
53 | Cc1cc(C)cc(Cc2c(C(C)C)c(=O)[nH]c(=O)n2C/C=C/c2ccccc2)c1 | 180 to 181
54 | Cc1c(-c2ccc(O)cc2O)c(=O)oc2cc(O)ccc12 | 282 to 283
55 | NCCCCn1cnc2c(N)ncnc21 | 62 to 64
56 | COc1ccc(CN2C(=O)C3(COc4cc5c(cc43)OCO5)c3ccccc32)cc1 (centres undefined) | 147 to 148
57 | CC(=O)N1CCc2cc(S(=O)(=O)C[N+](=O)[O-])ccc21 | 210
58 | Cc1c[nH]c(Cc2ccccc2NC(=O)N2CCN(C)CC2)n1 | 177 to 179
59 | COC(=O)CNc1cc(O)c(C(C)=O)c(OC)c1 | 114 to 115
60 | CC(C)c1[nH]nc2c1C(=O)c1c(NC(=O)CN3CCC(C(N)=O)CC3)cccc1-2 | 224 to 225
61 | CCOc1ccc(-c2nc3n(c2-c2ccncc2)CCC3)cc1 | 133 to 135
62 | O=C(C=Cc1ccc(CNCC2CCCCC2O)cc1)Nc1ccc(-c2ccc(Cl)cc2)cc1 (centres undefined) | 210 to 211
63 | Cc1cc(F)ccc1C(=C(C=O)c1nnnn1C)c1ccc(F)cc1C | 135 to 136
64 | O=C(O)CS(=O)(=O)CCCCCn1nc(-c2ccccc2)c(-c2ccccc2)c1-c1ccccc1 | 200
65 | COc1cc(COc2nn(Cc3ccccc3)cc2CO)ccc1OCc1nc(-c2ccccc2)oc1C | 90 to 91
66 | O=S(=O)(CC1CCCC1)c1nc[nH]n1 | 150 to 155
67 | NC(=O)CN1CCN(c2ccc3c(c2)N2CCN=C2C(c2ccccc2)=[N+]3[O-])CC1 | 225 to 227
68 | CN(C)C(=O)CC1=C(n2nc(-c3c(-c4ccccc4)nn4ccccc34)ccc2=O)CCCC1 | 80 to 81
69 | CCOC(=O)c1c(-c2ccc(OC)cc2)n2c3c(cccc13)OC(CCN1CCN(c3cc(C)ccn3)CC1)C2 (centres undefined) | 149 to 150
70 | COC(=O)c1[nH]c2cccc(C)c2c1Sc1ccc(Cl)cc1 | 192 to 193
71 | c1csc(N=C2SC[C@@H]3Cc4ccccc4CN23)c1 | 112
72 | C=C1COc2c(N3CCN(C)CC3)c(F)cc3c(=O)c(C(=O)O)cn1c23 | 200 to 201
73 | CC(C)NC1=NS(=O)(=O)c2cc(Cl)cc(Cl)c2N1 | > 230
74 | Cc1ncc(C#N)c(Nc2cccc3[nH]ccc23)c1-c1ccc(OCCCl)cc1 | 185 to 186
75 | Cn1c(C(F)(F)F)cc(=O)n(-c2c(F)cc(Cl)c3ccoc23)c1=O | 127 to 128

Row | Compound | melting point [°C]
76 | CCOC(=O)C1(C2c3[nH]c4ccc(Cl)cc4c3CCN2C(=O)c2ccno2)CCC1 (centres undefined) | 166 to 167
77 | NCCC(=O)NCCCCCNC(=O)Cc1cccc(O)c1 | 109 to 115
78 | CC(NC(=O)C(Cc1ccc(O)cc1)NC(=O)OC(C)(C)C)C(=O)NCC(=O)O (stereo not drawn) (Boc-Tyr-Ala-Gly-OH; configuration not given here) | 194 to 197
79 | COc1ccc(NC(C)=C(C#N)C#N)cc1 | 254 to 255
80 | CC#CCOc1cc(N(C)c2cccc(F)c2F)ncn1 | 77.5
81 | CC(=O)Nc1ccc2oc(=O)[nH]c2c1 | 295 to 300
82 | COc1cc2c(c(Cl)c1Cl)CCCC2=O | 150 to 151
83 | O=Cc1cncc2ncc(-c3ccccc3)cc12 | 148
84 | CN1CC2Cc3cc4c(cc3C(c3ccc([N+](=O)[O-])cc3)=NN2C1=O)OCO4 (centres undefined) | 252 to 255
85 | CCc1c(C(=O)O)ccc(OCc2ccccc2)c1Cl | 208 to 210
86 | CSCCOC(=O)N(C)c1nnc(-c2cncc(F)c2)s1 | 104 to 106
87 | Oc1cc(O)cc(-c2ccccc2)c1 | 157 to 158
88 | COc1ccc(CN(C)CCCc2ccc(NC(=O)c3cccc4c(=O)c5cc(F)ccc5sc34)cc2)cc1OC | 160
89 | O=Cc1ccc2c(c1)S(=O)(=O)c1ccccc1C=C2 | 167 to 171
90 | N#CCc1cccc([N+](=O)[O-])c1[N+](=O)[O-] | 88 to 90
91 | COc1ccc(N2C(=O)c3cccc(OC)c3NC2c2ccc(OCCCl)cc2)cc1 (centres undefined) | 122 to 124
92 | CSc1nn2c(N)cc(C)nc2c1S(=O)(=O)c1ccc(I)cc1 | > 230
93 | CS(=O)(=O)c1ccc(-c2cc(CO)sc2-c2ccc(F)cc2)cc1 | 140 to 142
94 | Nc1ccc(C2=NN=C(c3ccccn3)N(C(=O)c3ccccc3)N2)nc1 | 223 to 225
95 | C#CCOC(=O)CCC(C)(c1ccc(O)cc1)c1ccc(O)cc1 | 99.5 to 101
96 | Nc1nc(Nc2ccccc2)sc1C(=O)c1cccnc1 | 227 to 228
97 | CC1=CC(c2cccc(OC(F)(F)F)c2)C2=C(CCCC2=O)N1 (centres undefined) | 144 to 146
98 | COc1cc(C=CC=O)ccc1OC(C)=O | 83 to 86
99 | c1ccc2sc(SSN3CCCCCC3)nc2c1 | 65 to 67

— a melting point compilation (Tetko et al.; mined from patent text by program, amines drawn as free bases though some values may be those of a salt)
